From patent publication US20230303486A1, “CYCLOBUTYL-UREA DERIVATIVES” (Idorsia Pharmaceuticals Ltd, priority 2020, published 2023)

Assays:
[1] = test system: audiogenic generalized convulsive seizures in DBA/2J mice; test: Audiogenic seizure-sensitive mouse model of generalized convulsive seizures; type: in vivo; conditions: 10 mg/kg po, challenge 1h
Method: (§1) Compounds were formulated in a 10% polyethylene glycol 400 (PEG 400) / 90% aqueous solution of 0.5 % methylcellulose (MC 0.5%). Firstly drugs are dissolved in PEG 400 and then suspended in MC 0.5 % for oral gavage at Xmg/5 mL/kg (X see table).
• 1. Procedure: Following two days of acclimatisation, auditory seizures are induced in male juvenile DBA/2J mice (22-24 days old; Janvier Labs, France). Each mouse is placed individually in the exposure chamber, an hemispheric acrylic glass dome (diameter: 50 cm) within a sound-attenuated box. The soundattenuated box is equipped with two house lights and a camera system (Fire-I from Unibrain) in order to observe and record the behavioral seizure response. After 60 seconds of habituation, the stimulus, a mixed frequency tone of 15-20 kHz at 110 dB (SASLab Lite, Avisoft Bioacoustics), is played from a speaker that is placed on the top center of the dome. […] Seizures are classified as following: stage 0, normal behavior; stage 1, wild running; stage 2, generalized clonus; stage 3, tonic extension of the hind limbs. • 2. Compounds testing: Acute compound effects on audiogenic generalized convulsive seizures are evaluated in independent groups of 8-10 mice randomly assigned. Following oral administration of compound or vehicle, the maximum seizure stage during sound exposure is assessed. Compounds are given 1 hour before exposure to the stimulus. Each mouse is exposed to the auditory stimulus only once and euthanized afterwards by CO2 inhalation.

[2] = test system: fully kindled Wistar rats; test: Amygdala-kindling rat model; type: in vivo; conditions: challenge 1 h
Method: as §1
• 1. Procedure: Adult male Wistar rats (Harlan Laboratories, Netherlands, or Charles Rivers, Germany; body weight 300-350 g) were stereotaxically implanted with twisted bipolar plastic-coated stainless steel electrode (MS333-2-BIU 10 mm, Plastics One) into the right basolateral amygdala under isoflurane anesthesia. To place the electrode, trepanations were made in the skull and the electrode was lowered into the right basolateral amygdala (from bregma: anteriorposterior (AP): -2.5 mm, medio-lateral (ML): -3.5 mm, dorso-ventral (DV): -8.6 mm; α=10^0) and secured to the skull with screws and dental acrylate. After one week of recovery, they were handled daily and habituated over one week to the kindling setup. Kindling procedure: For a kindling session each rat was placed individually into a smooth acrylic plastic, round-bottomed bowl (0 36 cm, height 36 cm, BASi movement-responsive caging system) and its intracranial implanted electrode was connected to the stimulator (STG4008, Multichannel Systems GmbH) and the recording devices (PowerLab 8/35, ADInstruments Ltd) via a cable (335-340/3 (C), Plastics One). For the kindling procedure, each rat was exposed once daily to an electrical stimulation and the behavioral symptoms of the evoked seizure were observed and classified according to the modified Racine scale (stage 0, arrest, wet dog shakes, normal behaviour; stage 1, facial twitches: nose, lips, eyes; stage 2, chewing, head nodding; stage 3, forelimb clonus; stage 4, rearing, falling on forelimbs; stage 5, rearing, falling on side or back, rolling). […] The duration of electroencephalographic seizures (afterdischarge, AD) was recorded using LabChart7 Pro software (ADInstruments Ltd). Simultaneously, videos were recorded to evaluate seizure stage (SS). • 2. Compound testing: Acute drug effects were evaluated in groups of 6-8 fully kindled rats in a randomized cross-over design with 48h between drug and vehicle applications. Following oral administration of drug or vehicle, drug testing included determination of the afterdischarge threshold (the minimal stimulation intensity necessary to evoke an afterdischarge (electroencephalographically measured neuronal hyper-synchronous activity with an amplitude 2-times higher than baseline amplitude and a frequency of […]) of at least 3 sec duration) and monitoring electroencephalographic and behavioral correlates of the evoked seizure at ADT (afterdischarge threshold), including AD duration and SS, by a experimenter blind to treatment assignment.

[3] = biological target: T1, Kv7.2/7.3 (human KCNQ2 and KCNQ3 genes) in HEK293 cells (Homo sapiens, UniProt O43525+O43526); test: Kv7.2/3 assay (FLIPR potassium assay, agonist mode); type: cell-based; conditions: Kv7.2/7.3 activation, responses relative to Flupirtine
T1 construct: host or cells: HEK293
Method: HEK293 cells were stably transfected with the appropriate ion channel cDNA(s) (human KCNQ2 and KCNQ3 genes). Cells were cultured in Dulbecco’s Modified Eagle Medium /Nutrient mixture F-12 (D-MEM/F-12) supplemented with 10% fetal bovine serum, 100 U/mL penicillin G sodium, 100 µg/mL streptomycin sulfate and selection antibiotics. FLIPR Test Procedure: For FLIPR assay, cells were plated in 384-well black clear-bottomed microtiter plates (BD Biocoat Poly-D-Lysine Multiwell Cell Culture Plate) at 15′000 to 30′000 cells per well. Cells were incubated at 37° C. overnight or until cells reached sufficient density in the wells (near confluent monolayer) to use in fluorescence assays. […] Assays were performed with the FLIPR potassium assay kit (Molecular Devices) according to the manufacturer’s instructions. Dye-loading: Growth media was removed and replaced with 20 µL of dye loading buffer for 60 min at room temperature. FLIPR Recording (agonist mode): Stock solutions of test compounds were prepared at a concentration of 33.3 mM in DMSO. 5 µL of 5x concentrated test, vehicle, or control compounds solutions prepared in the stimulation buffer (K^+-free buffer with 5 mM TI^+) were added to each well and fluorescence recording was continued for 5 min. The agonist effect (EC50 and % effect) of test or control compounds on Kv7 channels was determined as follows: Raw data was exported using Screenworks® 4.2 software and the fluorescence traces were analysed using Microsoft Excel (Microsoft Corp., Redmond, WA). The test compounds responses were expressed as % of maximum response of the control compound Flupirtine (Sigma-Aldrich), which was tested at concentrations ranging from 0.03 to 100 µM. Concentration-response data were fitted to a Hill equation. Non-linear least squares fits were made assuming a simple binding model. If appropriate, fits were weighted by the standard deviation. No assumptions about the fit parameters were made; the fit parameters were determined by the algorithm.

O=C(NCc1cccc(C(F)(F)F)c1)NC12CC(C(F)F)(C1)C2 [Example 47, 1-(3-Difluoromethyl-Bicyclo[1.1.1]Pent-1-yl)-3-(3-Trifluoromethyl-Benzyl)-Urea]
Seizure stage [% vs. vehicle] [1]: -92 % vs. vehicle
AD duration [% vs veh] ([2]; 10 mg/kg po): -85 % vs veh
Seizure stage [% vs veh] ([2]; 10 mg/kg po): -70 % vs veh
EC50 [3]: 59 nM

O=C(NCc1cccc(C(F)(F)F)c1)NC1CC(C(F)F)C1 (single isomer, unassigned) [Example 53, 1-(3-(Difluoromethyl)Cyclobutyl)-3-(3-(Trifluoromethyl)Benzyl)Urea]
Seizure stage [% vs. vehicle] [1]: -78 % vs. vehicle
AD duration [% vs veh] ([2]; 30 mg/kg po): -93 % vs veh
Seizure stage [% vs veh] ([2]; 30 mg/kg po): -81 % vs veh
EC50 [3]: 82 nM
